In US8961624B2, “Ortho-phenylphenol compounds as markers for liquid hydrocarbons and other fuels and oils” (Dow Global Technologies LLC, priority 2011, dated 2015):

Experiments:
[1] = Solubility in organic solvents at −10° C.; type: physicochemical; conditions: for soluble at (concentration) in NMP / soluble at (concentration) in tetralin / soluble at (concentration) in DMAc / soluble at (concentration) in dipropylene glycol dimethyl ether: −10° C.; for soluble at (concentration) in AROMATIC 200: AROMATIC 200, −10° C.
[2] = Solubility of Ex. 13 Product (cold storage of 10% w/w solution in AROMATIC 200); type: physicochemical; conditions: 10% w/w solution in AROMATIC 200, −11° C. freezer for 2 weeks
Experimental: Solubility of Ex. 13 Product: A solution (10% w/w) in AROMATIC 200 was prepared at room temperature. The clear solution was placed in a −11° C. freezer for 2 weeks.

SMILES	melting point [°C]	soluble at (concentration) in NMP [1] [%]	crystallization from solution on cold storage [2]	soluble at (concentration) in tetralin [1] [%]	soluble at (concentration) in AROMATIC 200 [1] [%]	soluble at (concentration) in DMAc [1] [%]	soluble at (concentration) in dipropylene glycol dimethyl ether [1] [%]
c1ccc(-c2ccccc2OCc2ccc(-c3ccc(COc4ccccc4-c4ccccc4)cc3)cc2)cc1 [4,4′-bis(([1,1′-biphenyl]-2-yloxy)methyl)-1,1′-biphenyl]	149 to 151	10					
O=C(Oc1ccccc1-c1ccccc1)c1ccccc1 [Ex. 13 Product, [1,1′-biphenyl]-2-yl benzoate]			No visibly detectable crystallization occurred				
CCCCCCCCCCCCCCCCCCOc1ccccc1-c1ccccc1 [2-(octadecyloxy)-1,1′-biphenyl]	42 to 45			< 5			
c1ccc(-c2ccccc2OCc2ccccc2COc2ccccc2-c2ccccc2)cc1 [1,2-bis(([1,1′-biphenyl]-2-yloxy)-methyl)benzene]		10		10	10	10	10
c1ccc(-c2ccccc2OCCCCOc2ccccc2-c2ccccc2)cc1 [1,4-bis([1,1′-biphenyl]-2-yloxy)butane]	62 to 67	10				10	10
c1ccc(-c2ccccc2OCc2ccc(COc3ccccc3-c3ccccc3)cc2)cc1 [1,4-bis(([1,1′-biphenyl]-2-yloxy)-methyl)benzene]	140 to 142	10					
CCCCCCCCCCCCCCOc1ccccc1-c1ccccc1 [2-(tetradecyloxy)-1,1′-biphenyl]				7.5			
CCCCCCCCCCCCOc1ccccc1-c1ccccc1 [2-(dodecyloxy)-1,1′-biphenyl]	27 to 29			10	10		10
